From patent US10537610B1, “Peptide for inhibition of cancer” (priority 2018, dated 2020)
Where two headings read alike, the source gives them in different places. Non-standard residues stand in square brackets, D forms with d. Residues, ends and D or L forms follow the SMILES beside them.

Tests used:
Format in all cases: cell-based, human
JAM-A = assay: Western blot of JAM-A protein in HMEC-1 cells
Method: The cells were lysed with lysis buffer (1% Triton X-100 and 0.1% SDS in PBS) supplemented with Halt Protease Inhibitor Cocktail (Thermo Scientific, Waltham, Mass., USA). For the equalization between the samples before the semi-quantitative analyses the protein content of lysates was determined with the BCA Protein Assay Kit according to the manufacturer's protocol (Thermo Scientific). Cell lysate aliquots at a protein content of 50 μg per sample were boiled with 5× concentrated loading buffer (final concentrations: 50 mM Tris-HCl, pH 6.8, 8% glycerol, 2% SDS, 5% β-mercaptoethanol, 0.002% bromophenol blue), separated under reducing conditions on 4-20% gradient SDS-PAGE gels (Bio-Rad) and electroblotted (120 min, 200 mA, 4° C.) onto polyvinylidene difluoride (PVDF) membranes (Bio-Rad). The membranes were washed with Tris-buffered saline (TBS) and blocked for 2 hours with TBS containing 5% nonfat dry milk at room temperature. Then, the membranes were incubated overnight at 4° C. with an appropriate amount of primary antibody diluted in TBS containing 0.05% Tween 20 (TBST). The following primary antibodies were used: monoclonal rabbit anti-JAM-A (Abcam, Cambridge, UK) at a dilution of 1:500 and monoclonal mouse anti-GAPDH (R&D Systems, Minneapolis, Minn., USA) at a dilution of 1:1000. The membranes were washed several times with TBST and incubated for 1 hour at room temperature with the corresponding polyclonal anti-rabbit and anti-mouse HRP-conjugated secondary antibodies (Santa Cruz Biotechnology, Dallas, Tex., USA) at a 1:5000 dilution in TBST. Following the subsequent washes with TBST the membranes were further processed for chemiluminescent detection using Westar TiC ECL Substrate (Cyanagen, Bologna, Italy) and the images were documented by ChemiDoc MP Imager (Bio-Rad).

JAM-A (CD321) = assay: Flow cytometry of JAM-A (CD321) on the surface of HMEC-1 cells; conditions: Tβ4 200 nM, TGF-β1 10 ng/ml or TNF-α 10 ng/mL, 24 hours
Source text: For the detection of JAM-A surface expression the cells were labeled with FITC anti-human CD321 (F11R) Mouse IgG1 Antibody (BioLegend, San Diego, Calif., USA) or with the FITC Mouse IgG1 Isotype Control Antibody (BioLegend) for the negative control. Labeled cells were washed to remove unbound antibodies, harvested with ice cold EDTA/PBS, fixed with BD CellFix (Becton Dickinson. Franklin Lakes, N.J., USA) and subsequently analyzed by FACS Canto II flow cytometer (Becton Dickinson). Upon excitation at 488 nm with an argon laser the emission of the fluorescence was recorded through selective band pass filter at 517 nm. Data were recorded with DIVA software, version 6.0 (Becton Dickinson) and subsequently analyzed using FCSalyzer software, version 0.9.14-alpha (https://sourceforge.net/projects/fcsalyzer/).

[1] = tested on: HMEC-1 endothelial monolayer
Method: The cells were treated with the peptide P4D for 0, 1, 5, or 24 hours at a concentration of 500 μM. The cells treated with the Scrambled peptide P4D (Scr; 500 μM; 0, 1, 5, or 24 hours incubation time) were used as a negative control. In order to provide the positive control of the junctions tightening for impedance-based measurements of endothelial permeability, the cells were incubated with the potent activator of TJ assembly, forskolin (FSK; BioShop, Burlington, ON, Canada), for 24 hours at a concentration of 10 μM. Experiments based on impedance measurements were performed at Bionanopark, Ltd. (Lodz, Poland) with an ACEA xCELLigence® Real-Time Cell Analysis (RTCA) DP system (Roche, Mannheim, Germany) consisting of an RTCA DP instrument, a personal computer-based RTCA control unit and single-use electronic 16-well plates “E-Plate VIEW 16 PET”. All experiments were performed following the manufacturer's instructions. In brief, the gold-film electrodes deposited on the bottom of the “E-plate VIEW 16 PET” electrode arrays were equilibrated with MCDB 131 culture medium overnight. Subsequently, the medium was aspirated and replaced by a 100 μL of fresh medium for impedance background measurements. HMEC-1 cells were seeded at a density of 40,000 cells per well in MCDB 131 medium with supplements. After allowing cell sedimentation for 30 min at room temperature, plates were locked into the RTCA DP instrument for continuous recording of impedance changes at three different AC frequencies (10 kHz, 25 kHz, 50 kHz), which are expressed as Cell Index (CI) values. CI is a dimensionless parameter based on relative impedance changes referenced to the values of the cell-free electrode at each frequency: [formula] where N is the number of the frequency points at which the impedance was measured, whereas […] Rb(fi) are the frequency-dependent electrode resistances with cells present and without cells, respectively. Thus, CI is a quantitative measure of cell status in a well, including the cell number, cell viability, adhesion degree, and morphology. Although CI is measured at three frequencies, only the most sensitive readings are returned by the software as a function of time and reported as the final results. In general, CI values rise with increasing coverage of the electrode with cells, which is caused at an early stage by cell sedimentation and, later on, by cell proliferation. During the phase of logarithmic cell growth HMEC-1 cells were pretreated with cytokines (TNF/IFN) and after 24 hours subsequently treated with the tested compounds (Scr, P4D, or FSK). For some experiments, the cells were treated with the compounds 2 hours after the cytokines treatment. Alternatively, the compounds treatment was applied about 3 hours after HMEC-1 seeding and about 67 hours later was followed by the cytokines treatment. This experimental approach included additionally the sample designated as 'P4D & TNF/IFN' i.e. after the pretreatment with P4D the cells were subjected to the concurrent treatment with P4D and cytokines.

Compound | level of JAM-A protein (JAM-A; Tβ4 200 nM or TGF-β1 10 ng/mL, 24-hours incubation) | action on JAM-A expression over incubation time (JAM-A; Tβ4 200 nM, 0, 2, 5, or 12 hours) | JAM-A (CD321) level on the cell surface (JAM-A (CD321)) | barrier-protecting effect (Cell Index) ([1]; P4D about 2.5 hours after plating plus second supplementary dose simultaneously with cytokines ('P4D & TNF/IFN')) | barrier-protecting effect (Cell Index) ([1]; P4D about 2.5 hours after plating, cytokines about 60 hours later, no supplementary dose) | barrier-strengthening effect relative to forskolin ([1]; applied ~24 hours after seeding, FSK 10 μM) | endothelial barrier function (Cell Index) ([1]; applied ~24 hours after seeding, compared to controls) | barrier-protecting effect (Cell Index) ([1]; compound applied 24 hours after treatment with inflammatory cytokines (TNF/IFN))
Thymosin β4 (SDKPDMAEIEKFDKSKLKKTETQEKNPLPSKETIEQEKQAGES; not fully specified; Thymosin beta-4; UniProt P62328 2-44, looked up) [Tβ4] | evidently reduced the level of JAM-A protein | time-dependent | slightly decreased JAM-A level on the membrane of HMEC-1 cells |  |  |  |  | 
CC(C)[C@H](NC(=O)[C@H](CO)NC(=O)[C@H](N)CCCCN)C(=O)N[C@H](C(=O)N[C@H](CCCNC(=N)N)C(=O)N[C@@H](CCC(=O)O)C(=O)N[C@@H](CC(=O)O)C(=O)N[C@H](C(=O)NCC(=O)N[C@H](C(=O)N[C@@H](Cc1ccc(O)cc1)C(=O)N[C@H](C(=O)N[C@@H](CS)C(N)=O)[C@@H](C)O)[C@@H](C)O)[C@@H](C)O)[C@@H](C)O [Peptide P4D, NH2-(dK)-SVT-(dR)-EDTGTYTC-CONH2] (H-[dK]SVT[dR]EDTGTYTC-NH2) |  |  |  | even more evident than that one of FSK | did not reveal any barrier-protecting properties | apparently weaker than that one of forskolin | slightly strengthened endothelial barrier function | did not reproduce the barrier-protecting effect of FSK
